According to article PMC5400565, “Real-time near-infrared fluorescence imaging using cRGD-ZW800-1 for intraoperative visualization of multiple cancer types” (Oncotarget, 2017):

How the values were obtained:
Na+ channel (site 2) = assay: Off-target screening (Eurofins Cerep), Na+ channel; assay type: binding; conditions: reference compound, format An
Excerpt: (§1) Off-target interactions are binding of tracers to other components on the cell surface than the actual target site. These non-specific interactions are often of low affinity and easily missed, but can have significant effects. We outsourced the screening for in vitro for off-target interactions of cRGD-ZW800-1 to Eurofins Cerep SA, Le bois l’Evêque, France. They assessed the percentage of inhibition of a reference compound in 44 selected targets, including G protein-coupled receptors (GPCRs), transporters, ion channels, nuclear receptors, kinases and other non-kinase enzymes. These targets were recommended by four major pharmaceutical companies. The complete list is included in Supplementary Table 1 of the Supplementary Data. Each assay was performed twice using 10 μM cRGD-ZW800-1 and a reference compound. Inhibition higher than 50% was considered to represent a significant effect of cRGD-ZW800-1. Results showing between 20% and 50% were considered weak to moderate effects, while lower than 20% was not considered significant and mostly attributable to variability of the signal around the control level.

[1] = human, in vivo, iv; cited from earlier work
Excerpt: Besides interacting with extracellular matrix proteins, integrin αvβ3 can also modulate intracellular pathways essential for COX-2 expression. The inhibition of COX-2 as shown in the in vitro off-target screening may be the result of binding cRGD-ZW800-1 to integrin αvβ3.

Adrenergic α1A = molecular target: T1, Adrenergic α1A (Homo sapiens, UniProt P35348); assay: Off-target screening (Eurofins Cerep), α1A; assay type: binding; conditions: reference compound, format H, An
T1 construct: Eurofins Cerep SA (contract screening)
T1 sequence (P35348 1-466): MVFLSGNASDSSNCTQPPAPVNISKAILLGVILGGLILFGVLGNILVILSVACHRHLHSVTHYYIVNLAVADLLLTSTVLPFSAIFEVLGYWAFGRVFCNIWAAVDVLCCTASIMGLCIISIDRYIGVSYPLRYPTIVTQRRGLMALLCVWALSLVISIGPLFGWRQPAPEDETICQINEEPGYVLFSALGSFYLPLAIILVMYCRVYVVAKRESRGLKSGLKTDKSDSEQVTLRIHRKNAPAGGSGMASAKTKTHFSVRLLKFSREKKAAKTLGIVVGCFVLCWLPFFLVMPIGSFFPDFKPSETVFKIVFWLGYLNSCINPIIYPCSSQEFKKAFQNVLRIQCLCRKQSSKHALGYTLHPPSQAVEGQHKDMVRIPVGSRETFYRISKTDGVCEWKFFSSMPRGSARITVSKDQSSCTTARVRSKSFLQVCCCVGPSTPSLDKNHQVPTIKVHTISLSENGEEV
Excerpt: as §1

[2] = molecular target: T2, 5-hydroxytryptamine (serotonin) receptor 2B (5-HT2B) (Homo sapiens, UniProt P41595); assay: Off-target screening (Eurofins Cerep), 5-HT2B; assay type: binding; conditions: reference compound, format H, Ag
T2 construct: Eurofins Cerep SA (contract screening)
T2 sequence (P41595 whole entry): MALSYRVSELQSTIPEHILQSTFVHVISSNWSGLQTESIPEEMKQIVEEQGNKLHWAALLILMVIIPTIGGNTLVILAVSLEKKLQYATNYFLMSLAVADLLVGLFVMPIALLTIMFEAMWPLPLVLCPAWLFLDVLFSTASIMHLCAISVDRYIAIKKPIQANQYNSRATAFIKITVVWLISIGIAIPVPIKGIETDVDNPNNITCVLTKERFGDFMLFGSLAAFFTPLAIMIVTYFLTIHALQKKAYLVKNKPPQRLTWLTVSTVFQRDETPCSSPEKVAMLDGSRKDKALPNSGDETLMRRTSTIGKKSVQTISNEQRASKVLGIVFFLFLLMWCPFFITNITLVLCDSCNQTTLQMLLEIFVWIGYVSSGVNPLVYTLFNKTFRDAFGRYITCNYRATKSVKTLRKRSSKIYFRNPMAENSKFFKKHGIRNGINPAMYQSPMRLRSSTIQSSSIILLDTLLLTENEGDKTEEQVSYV
Excerpt: as §1

KV channel = assay: Off-target screening (Eurofins Cerep), KV channel; assay type: binding; conditions: reference compound, format An
Excerpt: as §1

[3] = tested on: GABA channels BZD (central); assay: Off-target screening (Eurofins Cerep), BZD (central); assay type: binding; conditions: reference compound, format Ag
Excerpt: as §1

COc1ccc(C(=O)O[C@H]2CC[C@@]3(C)[C@@H]4CC[C@H]5[C@]6(O)C[C@H](O)[C@@]7(O)[C@@H](CN8C[C@@H](C)CC[C@H]8[C@@]7(C)O)[C@]6(O)C[C@@]53O[C@]24O)cc1OC [Veratridine, reference compound]
IC50 (Na+ channel (site 2)): 6800 nM

cilengitide
side effects [1]: without serious side effects

COc1cccc(OC)c1OCCNCC1COc2ccccc2O1 (stereo not drawn) [WB 4101, reference compound]
IC50 (Adrenergic α1A): 0.46 nM

COc1cc(CC(C)N)c(OC)cc1I (racemic) [(±)DOI, reference compound]
IC50 [2]: 4 nM

Alpha -dendrotoxin [reference compound]
IC50 (KV channel): 0.23 nM

CN1C(=O)CN=C(c2ccccc2)c2cc(Cl)ccc21 [Diazepam, reference compound]
IC50 [3]: 12 nM
